Assay results: patent US20230330251A1, “METHODS FOR TREATING CANCERS WITH ANTIBODY DRUG CONJUGATES (ADC) THAT BIND TO 191P4D12 PROTEINS” (AGENSYS, INC., priority 2020, published 2023)

Columns and labels:
[1] = system: metastatic urothelial cancer patients; assay: Phase 1 study of EV: clinical activity by dose; type: in vivo, human; conditions: 1.25 mg/kg dose vs lower doses
Procedure: EV will be administered at a dose of 1.25 mg/kg as an intravenous infusion over approximately 30 minutes on Days 1, 8, and 15 of each 28-day cycle. […] A maximum tolerated dose (MTD) was not reached in this study. At the 1 mg/kg dose level, 2 dose- limiting toxicities (DLTs) were observed: Grade 3 proctalgia (later changed to grade 2 by the investigator) thought related to radiation recall and Grade 4 hyperuricemia without clinical sequelae.

[2] = system: subjects with previously treated locally advanced or metastatic urothelial cancer; assay: EV-301: overall response rate, complete/partial response, disease control rate per RECIST V1.1 (response evaluable set); type: in vivo, human
Text: Subjects will be evaluated for response according to the RECIST V1.1. Imaging for both arms will be performed at baseline and every 56 days (±7 days) from the first dose of study treatment throughout the study until PFS1 is documented by radiological disease progression or the subject is lost to follow-up, death, withdraws study consent or starts a subsequent anti-cancer therapy.
CR is defined as disappearance of all target and nontarget lesions. Any pathological lymph nodes (whether target or nontarget) must have reduction in short axis to <10 mm from baseline measurement.
PR is defined as at least a 30% decrease in the sum of diameters (longest for nonnodal lesions, short axis for nodal lesions) of target lesions taking as reference to the baseline sum of diameters.
SD is defined as neither sufficient decrease to qualify for PR nor sufficient increase to qualify for progressive disease taking as reference the smallest sum of diameters while on study drug.
PD is defined as at least a 20% increase in the sum of diameters (longest for nonnodal lesions, short axis for nodal lesions) of the target lesions taking as reference the smallest sum on study (this includes the baseline sum if that is the smallest on study). […] The appearance of 1 or more new lesions is also considered progression.
The response evaluable set (RES) is defined as all subjects in FAS and with measurable disease at baseline and had at least 6 months follow up since randomization. RES will be used for primary efficacy analysis of response related endpoints, e.g., ORR and DCR.
The overall response rate (ORR) is defined as the proportion of subjects with complete or partial objective response based on the RECIST V1.1. The comparison of ORR between Arm A and Arm B was performed using a stratified CMH test. Same stratification factors used in time to event analyses will be used for the stratified CMH test. […] In addition, ORR for each arm was estimated and corresponding 95% confidence interval will be constructed. The primary analysis was performed using the RES.
The DCR is defined as the proportion of subjects with a complete or partial objective response or a stable disease based on RECIST V1.1. The comparison of DCR between Arm A and Arm B was performed using a stratified CMH test. Same stratification factors used in time to event analyses were used for the stratified CMH test. […] In addition, DCR for each arm was estimated and corresponding 95% confidence interval will be constructed. The primary analysis was performed using the RES.

[3] = All, Response-Evaluable Population

enfortumab vedotin
clinical activity by dose [1]: highest activity
ORR, EV vs SC Absolute Difference [2, 3]: 22.7%
Overall response rate (ORR), % [2, 3]: 40.6%
Overall response rate (ORR), n/N [2, 3]: 117/288
Best overall response: Complete response, % ([2]; RECIST v1.1, RES): (4.9) %
Best overall response: Not evaluable, % ([2]; RECIST v1.1, RES): (12.8) %
Best overall response: Partial response, % ([2]; RECIST v1.1, RES): (35.8) %
Best overall response: Progressive disease, % ([2]; RECIST v1.1, RES): (15.3) %
Best overall response: Stable disease, % ([2]; RECIST v1.1, RES): (31.3) %
Time to response, Median ([2]; RES): 1.87 months
Overall Response Rate (ORR), Confirmed, % ([2]; RES, investigator assessment, N = 288 EV, 296 chemotherapy): (40.6%)
Disease control rate, Patients, % ([2]; RES, N = 288 EV, 296 chemotherapy): (71.9%)
complete response, number of patients ([2]; of 288 (enfortumab vedotin) / of 296 (chemotherapy)): 14
Disease control ([2]; response-evaluable population): 71.9%
complete response, % of the patients ([2]; response-evaluable population): 4.9%
